Read-outs that look alike come from different tables or passages of the source.
Assays:
human DGKα = human DGKα (Homo sapiens (Human), UniProt P23743); assay: DGKα ADPGLO assay (detergent/lipid micelle substrate); format: biochemical
Description: DGK Alpha ADPGLO (Truncated) IC50 (uM)
The detergent/lipid micelle was prepared by combining 15 g phosphatidylserine (Avanti 840035P) and 1 g diacylglycerol (8008110) and dissolving into 150 mL chloroform in a 2 L round bottom flask. Chloroform was removed under high vacuum by rotary evaporation. […] The lipid/detergent solution was split into 5 mL aliquots and stored at −80° C.

human DGKζ = human DGKζ (Homo sapiens (Human), UniProt Q13574); assay: DGKζ LIPGLO assay (extruded liposome substrate, ADP-Glo luminescence); format: biochemical
[1] = truncated DGK alpha, read-out: DGK alpha ADPGLO (Truncated) IC50
[2] = liposome assay, read-out: DGK zeta LIPGLO IC50
[3] = ADPGLO assay, read-out: DGK alpha ADPGLO IC50
[4] = liposome (LIPGLO) assay, read-out: DGK zeta (liposome assay) IC50

Chain of human DGKα (P23743 whole entry, looked up, the tested form may be a part): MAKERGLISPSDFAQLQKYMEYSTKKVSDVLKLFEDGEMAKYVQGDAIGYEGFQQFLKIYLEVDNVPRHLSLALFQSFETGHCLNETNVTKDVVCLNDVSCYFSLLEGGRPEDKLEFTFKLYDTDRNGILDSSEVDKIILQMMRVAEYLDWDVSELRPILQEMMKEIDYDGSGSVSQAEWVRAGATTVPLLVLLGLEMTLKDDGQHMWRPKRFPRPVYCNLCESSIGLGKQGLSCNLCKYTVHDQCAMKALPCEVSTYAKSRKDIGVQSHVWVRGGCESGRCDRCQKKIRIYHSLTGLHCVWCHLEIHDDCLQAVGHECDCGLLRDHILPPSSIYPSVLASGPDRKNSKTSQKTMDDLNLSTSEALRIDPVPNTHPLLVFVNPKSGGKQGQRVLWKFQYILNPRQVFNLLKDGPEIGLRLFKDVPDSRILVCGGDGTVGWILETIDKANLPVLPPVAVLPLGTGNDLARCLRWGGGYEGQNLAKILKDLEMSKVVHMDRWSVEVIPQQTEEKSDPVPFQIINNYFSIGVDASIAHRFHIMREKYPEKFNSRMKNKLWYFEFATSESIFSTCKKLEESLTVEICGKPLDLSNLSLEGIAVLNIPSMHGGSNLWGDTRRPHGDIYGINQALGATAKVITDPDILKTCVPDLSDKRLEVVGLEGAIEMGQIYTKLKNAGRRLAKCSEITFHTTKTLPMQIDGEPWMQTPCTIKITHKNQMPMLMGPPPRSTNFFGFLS
Chain of human DGKζ (Q13574 other isoform, or with tags, fused parts or gaps): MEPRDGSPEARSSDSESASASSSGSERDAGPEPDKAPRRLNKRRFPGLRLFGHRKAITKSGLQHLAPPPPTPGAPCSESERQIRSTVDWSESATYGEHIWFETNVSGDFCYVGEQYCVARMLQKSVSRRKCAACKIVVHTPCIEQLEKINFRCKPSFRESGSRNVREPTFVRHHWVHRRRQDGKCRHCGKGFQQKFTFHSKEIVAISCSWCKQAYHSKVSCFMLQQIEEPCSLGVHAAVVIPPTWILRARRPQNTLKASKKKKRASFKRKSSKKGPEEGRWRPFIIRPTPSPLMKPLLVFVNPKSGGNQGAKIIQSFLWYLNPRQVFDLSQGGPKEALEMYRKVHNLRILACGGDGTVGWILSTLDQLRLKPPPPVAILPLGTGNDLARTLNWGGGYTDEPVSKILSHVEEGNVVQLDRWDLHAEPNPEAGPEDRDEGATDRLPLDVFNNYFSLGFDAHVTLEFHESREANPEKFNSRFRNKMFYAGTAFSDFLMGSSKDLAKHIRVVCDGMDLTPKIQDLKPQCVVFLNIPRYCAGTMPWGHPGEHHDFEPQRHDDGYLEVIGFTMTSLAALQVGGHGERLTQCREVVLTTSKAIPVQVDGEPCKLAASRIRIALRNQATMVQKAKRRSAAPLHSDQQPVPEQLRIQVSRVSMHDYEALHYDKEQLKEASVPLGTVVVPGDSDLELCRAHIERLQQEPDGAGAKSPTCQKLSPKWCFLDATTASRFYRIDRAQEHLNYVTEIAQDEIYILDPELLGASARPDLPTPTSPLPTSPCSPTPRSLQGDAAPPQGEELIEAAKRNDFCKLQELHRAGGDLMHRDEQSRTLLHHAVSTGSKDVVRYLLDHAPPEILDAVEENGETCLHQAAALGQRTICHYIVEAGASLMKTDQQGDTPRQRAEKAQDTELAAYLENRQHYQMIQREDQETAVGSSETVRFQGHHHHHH

Compound | IC50 (human DGKα; [1]) | IC50 (human DGKζ; [2]) | IC50 (human DGKα; [3]) | IC50 (human DGKζ; [4])
CC[C@H]1CN(C(C)c2ccc(C3(C)CC3)cc2)[C@H](CC)CN1c1nc(=O)n(C)c2ccc(C#N)nc12 (stereo partly drawn) [Example 218, 4-((2S,5R)-2,5-diethyl-4-(1-(4-(1-methylcyclopropyl)phenyl)ethyl)piperazin-1-yl)-1-methyl-2-oxo-1,2-dihydropyrido[3,2-d]pyrimidine-6-carbonitrile] | 78 nM | 18 nM | – | –
CC[C@@H]1CN(c2nc(=O)n(C)c3ccc(C#N)nc23)[C@@H](C)CN1C(c1ccc(F)cc1)c1cccc(C(F)F)n1 (stereo partly drawn) [Example 316, 4-((2 S,5R)-4-((6-(difluoromethyl)pyridin-2-yl)(4-fluorophenyl)methyl)-5-ethyl-2-methylpiperazin-1-yl)-1-methyl-2-oxo-1,2-dihydropyrido[3,2-d]pyrimidine-6-carbonitrile] | – | – | 87 nM | 31 nM
CC[C@@H]1CN(c2nc(=O)n(C)c3ccc(C#N)nc23)[C@@H](C)CN1C(C)c1ccc(CNC(=O)OC)cc1 (stereo partly drawn) [Example 359, Methyl (4-(1-((2R,5S)-4-(6-cyano-1-methyl-2-oxo-1,2-dihydropyrido[3,2-d]pyrimidin-4-yl)-2-ethyl-5-methylpiperazin-1-yl)ethyl)benzyl)carbamate] | – | – | 24 nM | 220 nM
CC[C@H]1CN(C(C)c2ccc(C(C)(C)N3CCOCC3)cc2)[C@H](CC)CN1c1nc(=O)n(C)c2ccc(C#N)nc12 (stereo partly drawn) [Example 247, 4-((2S,5R)-2,5-diethyl-4-(1-(4-(2-morpholinopropan-2-yl)phenyl)ethyl)piperazin-1-yl)-1-methyl-2-oxo-1,2-dihydropyrido[3,2-d]pyrimidine-6-carbonitrile] | 5870 nM | 840 nM | – | –
CCOC(=O)[C@H]1C[C@@H]1Oc1ccc(C(C)N2C[C@H](CC)N(c3nc(=O)n(C)c4ccc(C#N)nc34)C[C@H]2CC)cc1 (stereo partly drawn) [Example 259, ethyl (1S,2S)-2-(4-(1-((2R,5S)-4-(6-cyano-1-methyl-2-oxo-1,2-dihydropyrido[3,2-d]pyrimidin-4-yl)-2,5-diethylpiperazin-1-yl)ethyl)phenoxy)cyclopropane-1-carboxylate] | 2170 nM | 1800 nM | – | –
CC[C@H]1CN(C(C)c2ccc(CN3CCC(O)CC3)cc2)[C@H](CC)CN1c1nc(=O)n(C)c2ccc(C#N)nc12 (stereo partly drawn) [Example 285, 4-((2S,5R)-2,5-diethyl-4-(1-(4-((4-hydroxypiperidin-1-yl)methyl)phenyl)ethyl)piperazin-1-yl)-1-methyl-2-oxo-1,2-dihydropyrido[3,2-d]pyrimidine-6-carbonitrile] | 4100 nM | 8540 nM | – | –
CCC(c1ccc(OC(F)F)cc1)N1C[C@H](CC)N(c2nc(=O)n(C)c3ccc(C#N)nc23)C[C@H]1CC (stereo partly drawn) [Example 222, 4-((2S,5R)-4-(1-(4-(difluoromethoxy)phenyl)propyl)-2,5-diethylpiperazin-1-yl)-1-methyl-2-oxo-1,2-dihydropyrido[3,2-d]pyrimidine-6-carbonitrile] | 2 nM | 17 nM | – | –
CCC(C1CC1)N1C[C@H](C)N(c2nc(=O)n(C)c3ccc(C#N)nc23)C[C@H]1C (stereo partly drawn) [Example 453, 4-((2S,5R)-4-(1-cyclopropylpropyl)-2,5-dimethylpiperazin-1-yl)-1-methyl-2-oxo-1,2-dihydropyrido[3,2-d]pyrimidine-6-carbonitrile] | – | – | 215000 nM | 79400 nM
CC[C@@H]1CN(c2nc(=O)n(C)c3ccc(C#N)nc23)[C@@H](CC)CN1Cc1ccc(OCC2CC2)cc1 [Example 185, 4-((2S,5R)-4-(4-(Cyclopropylmethoxy)benzyl)-2,5-diethylpiperazin-1-yl)-1-methyl-2-oxo-1,2-dihydropyrido[3,2-d]pyrimidine-6-carbonitrile] | 270 nM | 610 nM | – | –
CC[C@H]1CN(C(c2ccc(F)cc2)c2cccc(C(F)F)n2)[C@H](CC)CN1c1nc(=O)n(C)c2ccc(C#N)nc12 (stereo partly drawn) [Example 258, 4-((2S,5R)-4((6-(difluoromethyl)pyridin-2-yl)(4-fluorophenyl)methyl)-2,5-diethylpiperazin-1-yl)-1-methyl-2-oxo-1,2-dihydropyrido[3,2-d]pyrimidine-6-carbonitrile] | 64 nM | 360 nM | – | –
CC[C@@H]1CN(c2nc(=O)n(C)c3ccc(C#N)nc23)[C@@H](C)CN1C(c1nc(C2CC2)no1)C(C)C (stereo partly drawn) [Example 366, 4-((2S,5R)-4-(1-(3-cyclopropyl-1,2,4-oxadiazol-5-yl)-2-methylpropyl)-5-ethyl-2-methylpiperazin-1-yl)-1-methyl-2-oxo-1,2-dihydropyrido[3,2-d]pyrimidine-6-carbonitrile] | – | – | 1450 nM | 620 nM
CCC(c1ccc(C2CC2)cc1F)N1C[C@H](C)N(c2nc(=O)n(C)c3ccc(C#N)nc23)C[C@H]1C (stereo partly drawn) [Example 380, 4-((2S,5R)-4-(1-(4-cyclopropyl-2-fluorophenyl)propyl)-2,5-dimethylpiperazin-1-yl)-1-methyl-2-oxo-1,2-dihydropyrido[3,2-d]pyrimidine-6-carbonitrile] | – | – | 29 nM | 180 nM
CC[C@@H]1CN(c2nc(=O)[nH]c3ccc(C#N)nc23)[C@@H](C)CN1C(C)c1ccc(C(F)(F)F)cc1 (single isomer, unassigned) [Example 413] | – | – | 440 nM | 750 nM
CC[C@H]1CN(C(C)c2ccc(C3(C#N)CC3)cc2)[C@H](CC)CN1c1nc(=O)n(C)c2ccc(C#N)nc12 (stereo partly drawn) [Example 263, 4-((2S,5R)-4-(1-(4-(1-cyanocyclopropyl)phenyl)ethyl)-2,5-diethylpiperazin-1-yl)-1-methyl-2-oxo-1,2-dihydropyrido[3,2-d]pyrimidine-6-carbonitrile] | 290 nM | 62 nM | – | –
CCC(C1CCC(F)(F)CC1)N1C[C@H](C)N(c2nc(=O)n(C)c3ccc(C#N)nc23)C[C@H]1C (stereo partly drawn) [Example 460, 4-((2S,5R)-4-(1-(4,4-difluorocyclohexyl)propyl)-2,5-dimethylpiperazin-1-yl)-1-methyl-2-oxo-1,2-dihydropyrido[3,2-d]pyrimidine-6-carbonitrile] | – | – | 11600 nM | 12000 nM
CCC(c1ccc(C2OCCO2)cc1)N1C[C@H](C)N(c2nc(=O)n(C)c3ccc(C#N)nc23)C[C@H]1CC (stereo partly drawn) [Example 332, 4-((2S,5R)-4-(1-(4-(1,3-dioxolan-2-yl)phenyl)propyl)-5-ethyl-2-methylpiperazin-1-yl)-1-methyl-2-oxo-1,2-dihydropyrido[3,2-d]pyrimidine-6-carbonitrile] | – | – | 74 nM | 720 nM
CC[C@H]1CN(C(C)c2ccc3oc(C4CC4)nc3c2)[C@H](CC)CN1c1nc(=O)n(C)c2ccc(C#N)nc12 (stereo partly drawn) [Example 254, 4-((2S,5R)-4-(1-(2-cyclopropylbenzo[d]oxazol-5-yl)ethyl)-2,5-diethylpiperazin-1-yl)-1-methyl-2-oxo-1,2-dihydropyrido[3,2-d]pyrimidine-6-carbonitrile] | 2850 nM | 2150 nM | – | –
CCC(c1ccc(C(F)(F)F)cc1)N1C[C@H](CC)N(c2nc(=O)n(C)c3ccc(Cl)nc23)C[C@H]1CC (single isomer, unassigned) [Example 422] | – | – | 230 nM | 6870 nM
CCOc1ccc2c(n1)c(N1C[C@@H](CC)N(C(CC)c3ccc(C(F)(F)F)cc3)C[C@@H]1CC)nc(=O)n2C (stereo partly drawn) [Example 437, 4-((2S,5R)-2,5-diethyl-4-(1-(4-(trifluoromethyl)phenyl)propyl)piperazin-1-yl)-6-ethoxy-1-methylpyrido[3,2-d]pyrimidin-2(1H)-one] | – | – | 250000 nM | 250000 nM
CCOc1ccc2c(n1)c(N1C[C@@H](CC)N(C(CC)c3ccc(C(F)(F)F)cc3)C[C@@H]1CC)nc(=O)n2C (stereo partly drawn) [Example 438, 4-((2S,5R)-2,5-diethyl-4-(1-(4-(trifluoromethyl)phenyl)propyl)piperazin-1-yl)-6-ethoxy-1-methylpyrido[3,2-d]pyrimidin-2(1H)-one] | – | – | 175000 nM | 250000 nM
CC[C@H]1CN(C(C)c2ccc(CN3CCN(C)C(=O)C3)cc2)[C@H](CC)CN1c1nc(=O)n(C)c2ccc(C#N)nc12 (stereo partly drawn) [Example 287, 4-((2S,5R)-2,5-diethyl-4-(1-(4-((4-methyl-3-oxopiperazin-1-yl)methyl)phenyl)ethyl)piperazin-1-yl)-1-methyl-2-oxo-1,2-dihydropyrido[3,2-d]pyrimidine-6-carbonitrile] | 210 nM | 500 nM | – | –
CCC(C1CCC(F)(F)CC1)N1C[C@H](C)N(c2nc(=O)n(C)c3ccc(C#N)nc23)C[C@H]1C (stereo partly drawn) [Example 459, 4-((2S,5R)-4-(1-(4,4-difluorocyclohexyl)propyl)-2,5-dimethylpiperazin-1-yl)-1-methyl-2-oxo-1,2-dihydropyrido[3,2-d]pyrimidine-6-carbonitrile] | – | – | 29800 nM | 23900 nM
CCC(c1ccc(C2CC2)cc1)N1C[C@H](C)N(c2nc(=O)n(C)c3ccc(C#N)nc23)C[C@H]1CC (stereo partly drawn) [Example 301, 4-((2S,5R)-4-(1-(4-cyclopropylphenyl)propyl)-5-ethyl-2-methylpiperazin-1-yl)-1-methyl-2-oxo-1,2-dihydropyrido[3,2-d]pyrimidine-6-carbonitrile] | 130 nM | 430 nM | – | –
CC[C@H]1CN(C(C)c2ccc(C(F)(F)F)cc2)[C@H](CC)CN1c1nc(=O)n(C)c2ccc(OC)nc12 (single isomer, unassigned) [Example 427] | – | – | 460 nM | 4450 nM
CCC(c1ccc(C2CC2)cc1)N1C[C@H](CC)N(c2nc(=O)n(C)c3ccc(C#N)nc23)C[C@H]1CC (stereo partly drawn) [Example 200, 4-((2S,5R)-4-(1-(4-cyclopropylphenyl)propyl)-2,5-diethylpiperazin-1-yl)-1-methyl-2-oxo-1,2-dihydropyrido[3,2-d]pyrimidine-6-carbonitrile] | 12 nM | 13 nM | – | –

From patent US11584747B2, “Substituted pyridopyrimidinonyl compounds useful as T cell activators” (BRISTOL-MYERS SQUIBB COMPANY, priority 2019, dated 2023)
